Experimental data published in article PMC11866022, “Long-Chain Cyclic Arylguanidines as Multifunctional Serotonin Receptor Ligands with Antiproliferative Activity” (ACS Omega, 2025).
“And” between values parts separate entries of the source, which are not always exact repeats. Equal entries are not always repeated. Each block holds one compound with its values, some of them ahead of it.

Columns and labels:
[1] = calibration standards, assigned values, no reference given; cited from earlier work
1321N1 astrocytoma cells = assay: Antiproliferative activity (MTS), 1321N1; format: cell-based, human; details: Homo sapiens, 1321-N1; MTS assay
Description: (§1) These cell lines were characterized by different mutation profiles, the main one being the variable status of the p53 protein. In detail, U87MG cells have a wild-type p53 protein, while astrocytoma and the rest of GBM cells harbor mutated p53 protein. Additional assays were performed on MCF7 breast cancer and AsPC-1 pancreatic cancer cells. The wide range of tested lines was aimed at screening the anticancer potential of the tested compounds. The first represents one of the most common and the second one of the most aggressive cancers in the world. Comparing the activity of compounds on GBM cells to other types of cancer may reveal their selectivity and usefulness in targeted therapies. The cytotoxicity of the compounds on normal human astrocytes (NHA) and Feline catus astrocyte (PG-4) was determined. Tests on normal lines serve to verify the potential toxicity of the tested compounds on healthy cells. Due to the targeting of CNS tumors, astrocytes were selected as normal lines.
(§2) The detailed procedure is presented in previous publications.[53] […] Cells were cultured in appropriate media, supplemented with FBS, antibiotics, and other supplements, and incubated at 37 °C with 5% CO2. […] Cell viability was assessed using the MTS assay, and the inhibitory concentration (IC50) was calculated using GraphPad Prism 8.0. Each compound was tested in triplicate across multiple experiments.
Supplementary materials - Biological research […]

5-HT6 = molecular target: T1, 5-HT6 (Homo sapiens, UniProt P50406); assay: Radioligand binding assay, 5-HT6 ([3H]-LSD); details: HEK293 cell line with human 5-HT6R; 2 nM [3H]-LSD
T1 construct: expressed in transfected cells; host or cells: HEK293
T1 sequence (P50406 whole entry): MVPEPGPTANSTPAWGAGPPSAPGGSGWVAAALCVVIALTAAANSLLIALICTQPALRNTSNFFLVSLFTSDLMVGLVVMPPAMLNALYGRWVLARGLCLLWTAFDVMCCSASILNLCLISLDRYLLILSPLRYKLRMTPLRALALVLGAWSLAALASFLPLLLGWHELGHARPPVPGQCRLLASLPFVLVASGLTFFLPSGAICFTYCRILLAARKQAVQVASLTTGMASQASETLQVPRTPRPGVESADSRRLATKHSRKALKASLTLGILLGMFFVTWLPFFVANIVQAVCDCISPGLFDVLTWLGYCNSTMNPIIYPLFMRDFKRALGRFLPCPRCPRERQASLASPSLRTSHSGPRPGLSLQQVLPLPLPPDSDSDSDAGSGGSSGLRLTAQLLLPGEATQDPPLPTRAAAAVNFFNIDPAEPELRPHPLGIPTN
Description: Ligand affinity for 5-HT6 receptors was subsequently tested with a radioligand binding assay, using the HEK293 cell line with human 5-HT6R, aiming to select compounds with the strongest affinity. Three compounds belonging to 2-naphthalenesulfonamide derivatives of 3,4-dihydroquinazolin-2-amines were obtained (Table 1).
The detailed procedure is presented in previous publications.[53] Assays were performed by incubating for 1 h at 37 °C (room temperature for 5-HT1A) in 200 μL volumes on 96-well plates. The reaction was terminated by rapid filtration using Unifilter plates, and radioactivity on the filters was measured with a PerkinElmer Microbeta plate reader. Radioligands used were:
Eight concentrations (10^–4 to 10^–11 M) were tested in triplicate for each compound. Inhibition constants (Ki) were calculated using the Cheng–Prusoff equation.[54] The results are expressed as the means of at least two independent experiments.

U87MG glioblastoma cells = assay: Antiproliferative activity (MTS), U87MG; format: cell-based, human; details: Homo sapiens, U-87 MG; MTS assay
Description: as §1, §2
Supplementary materials - Biological research
B) U87MG glioblastoma multiforme line.
and U87MG glioblastoma multiforme line for C) PP 3; D) PP 6; E) PP 8; F) PP 10; G) PP 11; H) PP

[2] = test system: LN-229 glioblastoma cells; assay: Antiproliferative activity (MTS), LN-229; format: cell-based, human; details: Homo sapiens, LN-229; MTS assay, 72 h
Description: as §1, §2

U-251 glioblastoma cells = assay: Antiproliferative activity (MTS), U-251; format: cell-based, human; details: Homo sapiens, U-251; MTS assay, 72 h
Description: as §1, §2

MCF7 breast cancer cells = assay: Antiproliferative activity (MTS), MCF7; format: cell-based, human; details: Homo sapiens, MCF7; MTS assay, 72 h
Description: as §1, §2

[3] = test system: AsPC-1 pancreatic cancer cells; assay: Antiproliferative activity (MTS), AsPC-1; format: cell-based, human; details: Homo sapiens, ASPC1; MTS assay, 72 h
Description: as §1, with “The chosen group of ligands was further examined for their ability to inhibit proliferation across multiple cancer cell lines related to the CNS system (1321N1, U87MG, LN-229, and U-251). These” for “These”
The detailed procedure is presented in previous publications.[53] Briefly, the study utilized various human cancer and normal cell lines, including LN-229 (glioblastoma), MCF7 (breast carcinoma), HepG2 (hepatoma), U-251 (glioblastoma), U87MG (glioblastoma), AsPC-1 (pancreatic adenocarcinoma), and NHA (normal human astrocytes). Cells were cultured in appropriate media, supplemented with FBS, antibiotics, and other supplements, and incubated at 37 °C with 5% CO2. Compounds were dissolved in DMSO, prepared at various concentrations (1–25 μM), and applied to the cells for 72 h. Cell viability was assessed using the MTS assay, and the inhibitory concentration (IC50) was calculated using GraphPad Prism 8.0. Each compound was tested in triplicate across multiple experiments.

[4] = Lipophilicity, chromatographic hydrophobicity index on C18 (Valko protocol); format: physicochemical
Description: (§3) Lipophilicity and affinity for phospholipids for each investigated molecule were assessed. Additionally, selected compounds with the highest biological activities have been characterized by their affinity plasma proteins. All experiments were performed using protocols developed by Valko.[35] These methods facilitated the calculation of chromatographic hydrophobicity indices (CHI) and plasma protein binding percentages (%PPB) in a biochromatographic experiment, with results compared to the reference. A detailed description of the experiments is provided in the Supporting Information (SI), along with the raw data. […] Although high lipophilicity may limit the medical use of the analyzed compounds since they may tend to accumulate excessively in the human body, it is remarkable that several clinically used drugs also have high lipophilicity. […] (Table 5).
(§4) The detailed procedure is presented in previous publications.[53] High-performance liquid chromatography (HPLC) analyses were conducted using the Prominence-1 LC-2030C 3D system (Shimadzu) with a DAD detector, employing three different chromatographic columns with specific stationary phases and mobile phases. The analysis was performed at 30 °C with a flow rate of 1.5 mL/min for IAM and C18 columns, and 0.9 mL/min for the Chiralpak column. Calibration standards for the columns were sourced from various suppliers and dissolved in dimethyl sulfoxide. Detection occurred in the UV range (190–300 nm) with a 5 μL injection volume. Each compound was analyzed in triplicate. Retention times for the tested compounds and calibration standards are provided in the Supporting Information (Tables S1 and S2).

[5] = Affinity to phospholipids, CHI IAM (Valko protocol); format: physicochemical; details: IAM column
Description: as §3, §4

[6] = molecular target: T2, human serum albumin (HSA) (Homo sapiens, UniProt P02768); assay: HSA binding by biochromatography (HSA column); format: in vitro ADME; details: HSA column
T2 construct: purchased
T2 sequence (P02768 25-609): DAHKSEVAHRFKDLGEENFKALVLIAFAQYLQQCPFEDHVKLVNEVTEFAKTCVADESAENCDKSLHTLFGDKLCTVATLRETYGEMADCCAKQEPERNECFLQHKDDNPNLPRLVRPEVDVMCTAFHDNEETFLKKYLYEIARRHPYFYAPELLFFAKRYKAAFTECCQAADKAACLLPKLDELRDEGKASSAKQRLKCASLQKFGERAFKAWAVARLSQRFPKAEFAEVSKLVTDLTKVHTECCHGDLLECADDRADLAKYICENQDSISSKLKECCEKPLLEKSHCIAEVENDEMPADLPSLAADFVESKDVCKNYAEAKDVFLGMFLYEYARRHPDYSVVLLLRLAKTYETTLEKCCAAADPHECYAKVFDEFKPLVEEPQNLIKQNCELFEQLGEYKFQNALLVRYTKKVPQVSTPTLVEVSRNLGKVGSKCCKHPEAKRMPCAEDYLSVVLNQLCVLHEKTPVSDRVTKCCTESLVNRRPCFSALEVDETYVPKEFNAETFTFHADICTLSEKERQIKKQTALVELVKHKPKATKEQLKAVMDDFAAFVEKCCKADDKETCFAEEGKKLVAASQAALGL
Description: as §3, §4

[7] = Metabolic stability in mouse liver microsomes; format: in vitro ADME; details: MLMs, 120 min
Source text: Moving on to the next parameter, which is metabolism, we determined metabolic stability, using mouse liver microsomes (MLMs). […]
Main metabolic pathways are marked in red.

Compound: CC(=O)Nc1ccccc1 [Acetanilidine]
CHI IAM of the calibration set [1]: 11.5

IC50 (1321N1 astrocytoma cells): 1.1 µM
Compound: COc1cccc2c1C(=O)c1c(O)c3c(c(O)c1C2=O)C[C@@](O)(C(=O)CO)C[C@@H]3O[C@H]1C[C@H](N)[C@H](O)[C@H](C)O1 [Doxorubicin, reference compound]

Compound: CCCCCCC(=O)c1ccccc1 [Heptanophenone]
CHI IAM of the calibration set [1]: 45.7

Compound: CCCCCC(=O)c1ccccc1 [Hexanophenone]
CHI IAM of the calibration set [1]: 41.8

Compound: CCCCCCCC(=O)c1ccccc1 [Octanophenone]
CHI IAM of the calibration set [1]: 49.4

Ki (5-HT6): 8660 ± 2160 nM
Compound: O=S(=O)(c1ccc2ccccc2c1)N1CCN(C2=Nc3ccccc3CN2)CC1 [PP 1, 2-[4-(Naphthalene-2-sulfonyl)piperazin-1-yl]-3,4-dihydroquinazoline]

Ki (5-HT6): 616 ± 154 nM
Compound: O=S(=O)(NCCCCNC1=NCc2ccccc2N1)c1ccc2ccccc2c1 [PP 2, N-{4-[(1,4-Dihydroquinazolin-2-yl)amino]butyl}naphthalene-2-sulfonamide]

Ki (5-HT6): 201 ± 50 nM
IC50 (1321N1 astrocytoma cells): 13.3 ± 0.1 µM
IC50 (U87MG glioblastoma cells): 12 ± 0.9 µM
Compound: O=S(=O)(NCCCCCCNC1=NCc2ccccc2N1)c1ccc2ccccc2c1 [PP 3, N-{6-[(1,4-Dihydroquinazolin-2-yl)amino]hexyl}naphthalene-2-sulfonamide]

Ki (5-HT6): 4330 ± 1080 nM
IC50 (1321N1 astrocytoma cells): > 25 µM
IC50 (U87MG glioblastoma cells): > 25 µM
IC50 [2]: > 25 µM
IC50 (U-251 glioblastoma cells): > 25 µM
IC50 (MCF7 breast cancer cells): > 25 µM
IC50 [3]: > 25 µM
CHI C18 pH 2.6 [4]: 64.9
CHI C18 pH 7.4 [4]: 79.9
CHI C18 pH 10.5 [4]: 101.9
CHI IAM [5]: 50.2
%HSA [6]: 94.8%
logKHSA [6]: 1.18 and 1.2
Compound: O=S(=O)(NCCNC1=Nc2ccccc2CN1)c1cccc2ccccc12 [PP 4, N-{2-[(3,4-Dihydroquinazolin-2-yl)amino]ethyl}naphthalene-1-sulfonamide]

Ki (5-HT6): 3490 ± 872 nM
Compound: O=S(=O)(c1cccc2ccccc12)N1CCN(C2=Nc3ccccc3CN2)CC1 [PP 5, 2-[4-(Naphthalene-1-sulfonyl)piperazin-1-yl]-3,4-dihydroquinazoline]

Ki (5-HT6): 697 ± 174 nM
Compound: O=S(=O)(NCCCCNC1=Nc2ccccc2CN1)c1cccc2ccccc12 [PP 7, N-{4-[(3,4-Dihydroquinazolin-2-yl)amino]butyl}naphthalene-1-sulfonamide]

Ki (5-HT6): 98 ± 25 nM
IC50 (1321N1 astrocytoma cells): 18.4 ± 2.9 µM
IC50 (U87MG glioblastoma cells): 24.5 ± 1.4 µM
IC50 [2]: > 25 µM
IC50 (U-251 glioblastoma cells): > 25 µM
IC50 (MCF7 breast cancer cells): > 25 µM
IC50 [3]: > 25 µM
Compound: O=S(=O)(NCCCCCCNC1=Nc2ccccc2CN1)c1cccc2ccccc12 [PP 8, N-{6-[(3,4-Dihydroquinazolin-2-yl)amino]hexyl}naphthalene-1-sulfonamide]

Ki (5-HT6): 2420 ± 605 nM
Compound: CC1NC(NCCNS(=O)(=O)c2cccc3ccccc23)=Nc2ccccc21 (stereo not drawn) [PP 9, N-{2-[(4-Methyl-3,4-dihydroquinazolin-2-yl)amino]ethyl}naphthalene-1-sulfonamide]

Ki (5-HT6): 208 ± 52 nM
IC50 (1321N1 astrocytoma cells): 5.7 ± 0.1 µM
IC50 (U87MG glioblastoma cells): 9.5 ± 0.7 µM
CHI C18 pH 2.6 [4]: 97.1
CHI C18 pH 7.4 [4]: 111.2
CHI C18 pH 10.5 [4]: 121.8
CHI IAM [5]: 59.4
%HSA [6]: 99.7%
logKHSA [6]: 1.9
metabolic stability, % of remaining [7]: 76.87%
Compound: CC1NC(NCCCCCCNS(=O)(=O)c2cccc3ccccc23)=Nc2c(Cl)cc(Cl)cc21 (stereo not drawn) [PP 12, N-{6-[(6,8-Dichloro-4-methyl-3,4-dihydroquinazolin-2-yl)amino]hexyl}naphthalene-1-sulfonamide]

Ki (5-HT6): 4180 ± 1040 nM
IC50 (1321N1 astrocytoma cells): > 25 µM
IC50 (U87MG glioblastoma cells): > 25 µM
IC50 [2]: > 25 µM
IC50 (U-251 glioblastoma cells): > 25 µM
IC50 (MCF7 breast cancer cells): > 25 µM
IC50 [3]: > 25 µM
CHI C18 pH 2.6 [4]: 78.3
CHI C18 pH 7.4 [4]: 86.3
CHI C18 pH 10.5 [4]: 87.1
CHI IAM [5]: 37.2
%HSA [6]: 95.0%
logKHSA [6]: 1.2
Compound: O=S(=O)(NCCNc1ncc2ccccc2n1)c1cccc2ccccc12 [PP 14, N-{2-[(Quinazolin-2-yl)amino]ethyl}naphthalene-1-sulfonamide]

Ki (5-HT6): 3100 ± 776 nM
IC50 [2]: > 25 µM
IC50 (U-251 glioblastoma cells): > 25 µM
IC50 (MCF7 breast cancer cells): > 25 µM
IC50 [3]: > 25 µM
Compound: O=S(=O)(NCCCCCCNc1ncccn1)c1cccc2ccccc12 [PP 16, N-{6-[(Pyrimidin-2-yl)amino]hexyl}naphthalene-1-sulfonamide]

5-HT6 Ki (5-HT6): did not show any affinity
Ki (5-HT6): 31900 ± 7960 nM
Compound: c1ccc(CNc2nc3ccccc3[nH]2)cc1 [PP 17, N-Benzyl-1H-1,3-benzimidazol-2-amine]

5-HT6 Ki (5-HT6): did not show any affinity
Ki (5-HT6): 19800 ± 4950 nM
Compound: c1ccc(CCNc2nc3ccccc3[nH]2)cc1 [PP 18, N-(2-Phenylethyl)-1H-1,3-benzimidazol-2-amine]

Ki (5-HT6): 1870 ± 460 nM
IC50 [2]: > 25 µM
IC50 (U-251 glioblastoma cells): > 25 µM
IC50 (MCF7 breast cancer cells): > 25 µM
IC50 [3]: > 25 µM
Compound: c1ccc2c(c1)CNC(NCCc1cccc3ccccc13)=N2 [PP 19, N-[2-(Naphthalen-1-yl)ethyl]-3,4-dihydroquinazolin-2-amine]

5-HT6 Ki (5-HT6): did not show any affinity
Ki (5-HT6): 5060 ± 1260 nM
IC50 [2]: > 25 µM
IC50 (U-251 glioblastoma cells): > 25 µM
IC50 (MCF7 breast cancer cells): > 25 µM
IC50 [3]: > 25 µM
Compound: c1ccc2c(N3CCN(c4nc5ccccc5[nH]4)CC3)cccc2c1 [PP 20, 2-[4-(Naphthalen-1-yl)piperazin-1-yl]-1H-1,3-benzodiazole]

Ki (5-HT6): 975 ± 244 nM
Compound: c1ccc2c(c1)CNC(NCCCCCCNc1nsc3ccccc13)=N2 [PP 23, N6-(1,2-Benzothiazol-3-yl)-N1-(3,4-dihydroquinazolin-2-yl)hexane-1,6-diamine]

Compound: CC(=O)Nc1ccc(O)cc1 [Paracetamol]
CHI IAM of the calibration set [1]: 2.9
